In brackets after ≈: the same amount, converted by molar mass. Several values for one entry are separate records, joined by “and”; a condition that tells them apart may be missing. Equal values may be shown once.
Experiments:
[1] = tested on: E. Coli; assay: MIC, E. Coli; format: cell-based; details: for MIC: Escherichia coli
Experimental: (§1) The MIC assays are carried out in 150 μL volume in duplicate in 96-well clear flat-bottom plates. The bacterial suspension from an overnight culture growth in appropriate medium is added to a solution of test compound in 4% DMSO in water. Final bacterial inoculum is approximately 10^5-10^6 CFU/well. […] Both ampicillin and tetracycline are used as antibiotic-positive controls in each screening assay for S. pyogenes, E. coli imp-, E. coli, S. aureus, E. faecalis, K. pneumoniae and P. vulgaris. Ciprofloxacin is used as an antibiotic positive control in each screening assay for P. aeruginosa.

[2] = tested on: S. Aureus; assay: MIC, S. Aureus; format: cell-based; details: for MIC: Staphylococcus aureus
Experimental: as §1

Row | SMILES | MIC E. Coli. ([1]; Example 107) [µM] | MIC S. Aureus ([2]; Example 107) | MIC E. Coli. ([1]; Example 109) | MIC S. Aureus ([2]; Example 109) | also measured
1 | NCC1OC(OC2C(CO)OC(OC3C(O)C(N)CC(N)C3OC3OC(CO)C(O)C(O)C3N)C2OCCNC2CCCc3ccccc32)C(N)C(O)C1O (stereo not drawn) [Compound 9ac] | >10 | 1.3 to 2.5 µM | – | – | –
2 | CN(CCc1ccccc1)CC1OC(OC2C(N)CC(N)C(O)C2OC2OC(CO)C(OC3OC(CN)C(O)C(O)C3N)C2O)C(N)C(O)C1O (stereo not drawn) [Compound 15k] | – | – | 2.5-5^ uM | 0.3 to 0.6 µM | –
3 | NCC1OC(OC2C(CO)OC(OC3C(O)C(N)CC(N)C3OC3OC(CNCCc4ccc(C(F)(F)F)cc4)C(O)C(O)C3N)C2O)C(N)C(O)C1O (stereo not drawn) [Compound 15q] | – | – | 1.3 to 2.5 µM | 0.3 to 0.6 µM | –
4 | Cc1ccc(CCNCC2OC(OC3C(N)CC(N)C(O)C3OC3OC(CO)C(OC4OC(CN)C(O)C(O)C4N)C3O)C(N)C(O)C2O)cc1 (stereo not drawn) [Compound 15g] | – | – | 2.5-5^ uM | 0.6 to 1.2 µM | –
5 | COc1ccc(CCNCC2OC(OC3C(N)CC(N)C(O)C3OC3OC(CO)C(OC4OC(CN)C(O)C(O)C4N)C3O)C(N)C(O)C2O)cc1 (stereo not drawn) [Compound 15r] | – | – | 1.3 to 2.5 µM | 0.3 to 0.6 µM | –
6 | NCC1OC(OC2C(CO)OC(OC3C(O)C(N)CC(N)C3OC3OC(CNCCc4ccc(C5CCCCC5)cc4)C(O)C(O)C3N)C2O)C(N)C(O)C1O (stereo not drawn) [Compound 15m] | – | – | 1.3 to 2.5 µM | 0.3 to 0.6 µM | –
7 | NCC1OC(OC2C(CO)OC(OC3C(O)C(N)CC(N)C3OC3OC(CO)C(O)C(O)C3N)C2OCCNCCC2CC3CCC2C3)C(N)C(O)C1O (stereo not drawn) [Compound 9ab] | >10 | 5 to 10 µM | – | – | –
8 | NC1CC(N)C(OC2OC(CO)C(O)C(O)C2N)C(OC2OC(CO)C(O)C2OCCNCCc2ccccc2)C1O (stereo not drawn) [Compound 30c] | >100 | 12 to 25 µM | – | – | –
9 | NC[C@@H]1O[C@H](O[C@H]2[C@@H](OCCCc3ccccc3)[C@H](O[C@@H]3[C@@H](O)[C@H](N)C[C@H](N)[C@H]3O[C@H]3O[C@H](CO)[C@@H](O)[C@H](O)[C@H]3N)O[C@@H]2CO)[C@H](N)[C@@H](O)[C@@H]1O [Compound 14b] | – | – | – | – | MIC ([1]; Example 107): 20 to 40 µM (≈ 14.7 to 29.4 µg/mL); MIC ([2]; Example 107): 3 to 5 µM (≈ 2.2 to 3.67 µg/mL)
10 | NCC1OC(OC2C(CO)OC(OC3C(O)C(N)CC(N)C3OC3OC(CO)C(O)C(O)C3N)C2OCCNCCc2ccc(C(F)(F)F)cc2)C(N)C(O)C1O (stereo not drawn) [Compound 9ah] | 5 to 10 | 0.6 to 1.2 µM | – | – | –
11 | NCC1OC(OC2C(CO)OC(OC3C(O)C(N)CC(N)C3OC3OC(CO)C(O)C(O)C3N)C2OCCNCCc2cc(C(F)(F)F)cc(C(F)(F)F)c2)C(N)C(O)C1O (stereo not drawn) [Compound 9af] | >10 | 2.5-5^ uM | – | – | –
12 | NCC1OC(OC2C(CO)OC(OC3C(O)C(N)CC(N)C3OC3OC(CN4CCC5CCCCC54)C(O)C(O)C3N)C2O)C(N)C(O)C1O (stereo not drawn) [Compound 15s] | – | – | 1.3 to 2.5 µM | 0.3 to 0.6 µM | –
13 | COc1ccccc1CCNCC1OC(OC2C(N)CC(N)C(O)C2OC2OC(CO)C(OC3OC(CN)C(O)C(O)C3N)C2O)C(N)C(O)C1O (stereo not drawn) [Compound 15n] | – | – | – | 0.2 to 0.3 µM and 0.3 to 0.6 µM | –
14 | NC[C@@H]1O[C@H](O[C@H]2[C@@H](OCCOCCCC3CCCCC3)[C@H](O[C@@H]3[C@@H](O)[C@H](N)C[C@H](N)[C@H]3O[C@H]3O[C@H](CO)[C@@H](O)[C@H](O)[C@H]3N)O[C@@H]2CO)[C@H](N)[C@@H](O)[C@@H]1O [Compound 12b] | – | – | – | – | MIC ([1]; Example 107): 20 to 40 µM (≈ 15.7 to 31.4 µg/mL); MIC ([2]; Example 107): 5 to 10 µM (≈ 3.92 to 7.84 µg/mL)
